Earlier results, collected in US8247398B2, “Zinc complexes of natural amino acids for treating elevated copper caused toxicities” (SSV Therapeutics, Inc., priority 2007, dated 2012).

## O=S(=O)([O-])[O-].[Zn+2] [Zinc sulfate, zinc sulfate]
Wilson's disease therapy
  patient discomfort compared with zinc acetate: even more patient discomfort

## CC(=O)[O-].CC(=O)[O-].[Zn+2] [zinc acetate]
Patients receiving zinc acetate therapy
  patients encountering persistent gastric irritation, burning sensation, and nausea: About 10%
Taken on an empty stomach or in-between meals
  time before therapy is tolerable to the patient: several days or weeks

## N[C@@H](Cc1c[nH]cn1)C(=O)O.[Zn] [zinc histidine]
metallothionein; oral administration, male Wistar rat livers, within 12 hours
  metallothionein production in livers: 14-39 fold over control group

## zinc dipicolinate
metallothionein; same test as zinc histidine chelate (rats)
  metallothionein induction in the epidermis, sebaceous glands and hair follicles: substantially raised
